From ChEMBL document CHEMBL1201862, “PubChem BioAssay data set” (2004)
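Tested at 5 concentrations; 48 h exposure; 96-well plates; endpoints linearly interpolated, else capped at highest concentration. At the GI50, growth is halved.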 The source made the active and inactive calls. No stated cut-off is given here; in the data, active = GI50 up to about 1.1 µM and inactive = higher.

Assays:
Test in all cases: inhibition of tumour cell growth, NCI panel, 48 h
[1] = test system: HCC 2998
[2] = test system: SK-OV-3
[3] = test system: OVCAR-5
[4] = test system: M14
[5] = test system: ACHN
[6] = test system: HOP-62
[7] = test system: MDA-N
[8] = test system: NCI-H23
[9] = test system: LOX IMVI
[10] = test system: SF-268
[11] = test system: SN12C
[12] = test system: OVCAR-8
[13] = test system: EKVX
[14] = test system: OVCAR-3
[15] = test system: TK-10
[16] = test system: 786-0
[17] = test system: COLO 205
[18] = test system: NCI-H226
[19] = test system: K562
[20] = test system: DU-145
[21] = test system: SF-539
[22] = test system: MDA-MB-231
[23] = test system: IGROV-1
[24] = test system: OVCAR-4
[25] = test system: HCT-15
[26] = test system: SF-295
[27] = test system: KM12
[28] = test system: SW-620
[29] = test system: CCRF-CEM
[30] = test system: Malme-3M
[31] = test system: SK-MEL-2
[32] = test system: A549
[33] = test system: NCI-H522
[34] = test system: MCF7
[35] = test system: RPMI-8226
[36] = test system: U-251
[37] = test system: SK-MEL-5
[38] = test system: PC-3
[39] = test system: SNB-19
[40] = test system: BT-549
[41] = test system: SNB-75
[42] = test system: SK-MEL-28
[43] = test system: NCI/ADR-RES
[44] = test system: NCI-H460
[45] = test system: HT-29
[46] = test system: CAKI-1
[47] = test system: UACC-62
[48] = test system: UACC-257
[49] = test system: HCT-116
[50] = test system: MOLT-4
[51] = test system: HL-60
[52] = test system: MDA-MB-435
[53] = test system: UO-31
[54] = test system: SR
[55] = test system: A498
[56] = test system: HOP-92
[57] = test system: Hs-578T

Measured: GI50

Cc1cc(S(=O)(=O)Nc2nc3cscc3c(=O)n2N)c(S)cc1Cl
35.2 µM: [25]
inactive: [1] 47.5 µM | [2] > 100 µM | [3] 26.5 µM | [4] 31.9 µM | [5] 56.2 µM | [6] 49.3 µM | [7] 51.4 µM | [8] 55.2 µM | [9] 36.5 µM | [10] 17.7 µM | [11] 56.4 µM | [12] 46.2 µM | [13] 70.1 µM | [14] 45 µM | [15] > 100 µM | [16] 54.6 µM | [17] > 100 µM | [18] 8.15 µM | [19] 60.5 µM | [20] 40.3 µM | [21] 34.7 µM | [22] 73.8 µM | [23] 50.7 µM | [24] 39.3 µM | [26] 37.9 µM | [27] 39.5 µM | [28] 54.7 µM | [29] 62.8 µM | [30] 39.4 µM | [31] 33.4 µM | [32] 28.2 µM | [33] 32.8 µM | [34] 61.5 µM | [35] 96.6 µM | [36] 37.3 µM | [37] 41 µM | [38] 48.8 µM | [39] 35.9 µM | [40] 55.1 µM | [41] 15 µM | [42] 73.3 µM | [43] 26.3 µM | [44] 28 µM | [45] 39.6 µM | [46] > 100 µM | [47] 31.9 µM | [48] > 100 µM | [49] 36.7 µM | [50] 57.3 µM | [51] > 100 µM | [52] 56 µM

Cc1cn(C2OC(CO[Si](C)(C)C(C)(C)C)C(N(C)O[Si](C)(C)C(C)(C)C)C2[Se]c2ccccc2)c(=O)[nH]c1=O (stereo not drawn)
inactive: [2] 17.4 µM | [3] 2.82 µM | [4] 8.3 µM | [5] 3.92 µM | [6] 4.76 µM | [7] 8.93 µM | [8] 4.6 µM | [9] 2.94 µM | [10] 2.75 µM | [11] 5.65 µM | [12] 3.74 µM | [14] 4.39 µM | [53] 3.23 µM | [15] 5.24 µM | [16] 2.89 µM | [17] 5.38 µM | [18] 3.95 µM | [19] 7.59 µM | [20] 8.93 µM | [22] 6.27 µM | [54] 9.89 µM | [23] 8.17 µM | [24] 2.87 µM | [26] 4.15 µM | [55] 14.9 µM | [27] 3.66 µM | [28] 3.48 µM | [29] 11.8 µM | [30] 11.6 µM | [31] 7.6 µM | [32] 4.48 µM | [33] 3.25 µM | [34] 4.71 µM | [35] 3.18 µM | [36] 3 µM | [37] 4.16 µM | [38] 3.85 µM | [39] 5.82 µM | [41] 4.79 µM | [42] 5.56 µM | [56] 1.9 µM | [43] 13.2 µM | [45] 3.34 µM | [47] 8.75 µM | [49] 3.56 µM | [50] 3.72 µM | [51] > 100 µM | [57] 2.67 µM | [52] 3.79 µM
active: [1] 0.0325 µM
4.59 µM: [25]
